# Results from patent US20250177378A1, “TREATMENT OF DEPRESSION” (priority 2022, published 2025).
# Where “and” joins values, the source holds several entries; their conditions need not be identical. Equal values may be shown once.
# Key:
# [1] = Pharmacokinetics of dextromethorphan, bupropion and metabolites after administration of the subject combination
# [2] = tested on: individuals with MDD; conditions: switch strategy; cited from earlier work
# [3] = tested on: patients with depression; conditions: 150 mg/day or 300 mg/day, week 8; cited from earlier work
# [4] = tested on: patients with major depressive disorder; experiment: Phase 2 randomized double-blind trial, dextromethorphan-bupropion (45 mg/105 mg tablet) vs bupropion (105 mg tablet), twice daily, 6 weeks (NCT03595579)
# Procedure: This randomized, double-blind, multicenter, parallel-group trial evaluated dextromethorphan-bupropion versus the active comparator sustained-release bupropion in patients 18-65 years old with a diagnosis of major depressive disorder of moderate or greater severity. Patients were randomly assigned to receive either dextromethorphan-bupropion (45 mg/105 mg tablet) or bupropion (105 mg tablet), once daily for the first 3 days and twice daily thereafter, for a total of 6 weeks.
# This was a 6-week randomized, double-blind, active-controlled phase 2 trial conducted at four sites in the United States from May 2018 to December 2018. The trial used bupropion, an approved antidepressant, as the control because it is a component of dextromethorphan-bupropion.
# The clinical review utilized only documentation collected by the sites at screening and baseline, including a complete medical history and clinician- and patient-reported outcome measures (described below, under Efficacy Assessments). […] In order to reduce investigator expectation bias and therefore placebo response, sites were blinded to the primary efficacy variable and the presence of an independent assessor. Sites were provided a blinded protocol that presented the trial as a safety study with exploratory efficacy assessments. Detailed discussion of the efficacy analysis was limited to the statistical analysis plan, which was not provided to the sites.
# The study evaluated patients 18-65 years of age with a confirmed diagnosis of major depressive disorder and a current major depressive episode of moderate or greater severity. The diagnosis was established using the DSM-5 criteria for major depressive disorder without psychotic features, based on the Structured Clinical Interview for DSM-5, Clinical Trials Version, and the site investigator's rating of a score ≥25 on the Montgomery-Åsberg Depression Rating Scale (MADRS) and a score ≥4 on the Clinical Global Impressions severity scale (CGI-S). Confirmation of the diagnosis of major depressive disorder and a current major depressive episode of moderate or greater severity was performed by a blinded independent assessor based on a clinical review prior to database lock and study unblinding.
# The screening period was up to 4 weeks to allow for any needed taper and washout of prior medications.
# Participants were randomized in a 1:1 ratio to receive oral treatment with either dextromethorphan-bupropion or sustained-release bupropion. In order to blind site investigators to the independent confirmation of diagnosis, all patients deemed eligible by the site investigators were randomized to receive study medication and were included in the safety population. As prespecified, patients whose diagnosis or severity was not confirmed by the independent assessor were excluded from the efficacy population.
# Dextromethorphan-bupropion tablets and bupropion tablets were identical in appearance. The randomization schedule was computer generated using a permuted block algorithm that randomly allocated study drug to randomization numbers.
# The double-blind treatment period was 6 weeks. Patients received their assigned study medication, dextromethorphan-bupropion (45 mg/105 mg tablet) or bupropion (105 mg tablet), once daily for the first 3 days and twice daily thereafter. The bupropion dosage in the control arm (210 mg daily) was selected to match the dosage incorporated in dextromethorphan-bupropion, enabling an appropriate comparison. During the treatment period, patients tracked their mood daily by completing a daily visual analogue mood scale. Study visits occurred 1, 2, 3, 4, and 6 weeks after the baseline visit. A safety follow-up visit occurred at week 7, 1 week after the last dose of study medication. There were no formal discontinuation criteria; patients were free to withdraw consent for any reason, and investigators were free to remove a patient from the study for any safety-related reason.
smiles,measurement,setting,value
COc1ccc2c(c1)[C@]13CCCC[C@@H]1[C@H](C2)N(C)CC3 [dextromethorphan],Increase of mean elimination half-life vs dextromethorphan given without bupropion,"[1]; 8 consecutive days of the subject combination, extensive metabolizers",approximately 3 fold
same,AUC0-12 decrease when administered with food,[1]; subject combination with food,14%
same,Cmax change when administered with food,[1]; subject combination with food,unchanged
CN[C@H]1CC[C@@H](c2ccc(Cl)c(Cl)c2)c2ccccc21 [sertraline],"Remission rate, second line treatment following non-remission with an SSRI",[2],about 25%
CC(NC(C)(C)C)C(=O)c1cccc(Cl)c1 (racemic) [bupropion],Reduction from baseline in Hamilton Depression Rating Scale (HAM-D) score,[3],approximately 10 points
same,"Remission rate, second line treatment following non-remission with an SSRI",[2],about 25%
same,"Adverse event leading to discontinuation of study drug, patients","[4]; human, in vivo, 6 weeks",12.5%
same,"Anxiety, patients","[4]; human, in vivo, 6 weeks",2.1%
same,"Any adverse event, patients","[4]; human, in vivo, 6 weeks",64.6%
same,"Decreased appetite, patients","[4]; human, in vivo, 6 weeks",8.3%
same,"Dizziness, patients","[4]; human, in vivo, 6 weeks",4.2%
same,"Dry mouth, patients","[4]; human, in vivo, 6 weeks",8.3%
same,"Nausea, patients","[4]; human, in vivo, 6 weeks",12.5%
same,"Serious adverse event, patients","[4]; human, in vivo, 6 weeks",0.0%
same,"Severe adverse event, patients","[4]; human, in vivo, 6 weeks",2.1%
same,"CGI-S score, change from baseline, LS mean","[4]; overall, weeks 1-6",−1.0
same,"MADRS-6 score, change from baseline, LS mean","[4]; overall, weeks 1-6",−6.6 points
same,"QIDS-SR, LS mean change from baseline","[4]; overall, weeks 1-6",−4.8
same,Patients with positive response on item 1 of the C-SSRS (wish to be dead),[4]; week 1,five
same,"CGI-S score, change from baseline, LS mean",[4]; week 2,−0.9
same,"Clinical response (≥50% decrease in MADRS score from baseline), patients",[4]; week 2,27.0%
same,"MADRS total score, change from baseline, LS mean",[4]; week 2,−7.8 points
same,"MADRS-6 score, change from baseline, LS mean",[4]; week 2,−6.0
same,"Remission (MADRS score ≤10), patients",[4]; week 2,2.7% and 3%
same,"CGI-S score, change from baseline, LS mean",[4]; week 6,−1.5
same,"Clinical response (≥50% decrease in MADRS score from baseline), patients",[4]; week 6,40.5%
same,"MADRS total score, change from baseline, LS mean",[4]; week 6,−12.1 points
same,"MADRS-6 score, change from baseline, LS mean",[4]; week 6,−8.7
same,Patients with positive response on item 1 of the C-SSRS (wish to be dead),[4]; week 6,one
same,"Remission (MADRS score ≤10), patients",[4]; week 6,16.2%
same,"Remission on the QIDS-SR (score ≤5), patients",[4]; week 6,21.6%
same,Reduction from baseline in MADRS total score,"[4]; week 6, bupropion arm 210 mg/day",12 points
COc1ccc(C(CN(C)C)C2(O)CCCCC2)cc1 (stereo not drawn) [venlafaxine],"Remission rate, second line treatment following non-remission with an SSRI",[2],about 25%
